In paper PMC9862597, “Anti-Colorectal Cancer Effects of a Novel Camptothecin Derivative PCC0208037 In Vitro and In Vivo” (Pharmaceuticals, 2022):

Experiments:
LS180 cells = test: MTT cell viability assay, LS180; assay type: cell-based; conditions: Homo sapiens, LS180, 72 h
Method: (§1) Cell viability was assessed using the MTT assay, as previously reported. Briefly, colorectal cancer cells (LS180, HCT116, CT-26, and HT-29 cells) were plated onto 96-well plates at 3000 cells per well and incubated overnight. […] Control cells were treated with DMSO at a final concentration of 0.1%. Cells were cultured with the compounds or medium for 72 h. The cells were then treated with MTT. The medium was then decanted, and DMSO was added and shaken until the color reaction was complete. The […] were read using a Molecular Devices SpectraMax M5 (San Jose, CA, USA) at OD570 nm. The half maximal inhibitory concentration (IC50) was calculated.

HCT116 cells = test: MTT cell viability assay, HCT116; assay type: cell-based; conditions: Homo sapiens, HCT-116, 72 h
Method: as §1

LS180 and HCT116 cells = test: Cell growth curve assay; assay type: cell-based; conditions: 0.001, 0.003 µmol/L, counts over 6 days
Method: Cell proliferation was examined by a cell growth curve assay and a clone formation assay. Colorectal cancer cells (LS180 and HCT116 cells) were plated onto six-well plates at a density of 8000 cells per well. […] The number of cells was measured 24 h after the drug treatments. Growth curves were generated from cell counts over 6 consecutive days. For the clone formation assay, colorectal cancer cells (LS180 and HCT116 cells) were plated onto six-well plates at a density of 800 cells per well. […] Cells were then incubated with designated concentrations of PCC0208037. Fourteen days later, cells were stained with a crystal violet solution, and clones were counted.
Figure 2 Effect of PCC0208037 on cell growth. (A) Cell growth curves of LS180 cells under different treatments. (B) Cell growth curves of HCT116 cells under different treatments. The data were expressed as the mean ± SD (n = 3). * p < 0.05 as compared to the control.

LS180 xenograft tumor = test: Subcutaneous LS180 xenograft model; assay type: in vivo, nude mice; conditions: for tumor inhibition rate (tumor weight): 15 d
Method: To establish xenograft tumor models, RPMI 1640 and Matrigel were mixed at a 1:1 ratio. Colorectal cancer cells (LS180: 5 × 10^6 cells) were added to 0.1 mL of the mixture, and male nude mice were subcutaneously injected with colorectal cancer cells on the right side. […] Tumor volume and animal weight were measured every 3 days and continued until the end of the experiments. All mice were euthanized by cervical dislocation at the end of the experiment, and the xenograft tumors were removed and weighed.
Figure 8 Anti-tumor effect of PCC0208037 in the LS180 xenograft tumor model. (A) Representative tumors removed after the last treatment in each treatment group. (B) Body weight gain curves of mice bearing an LS180 xenograft tumor. (C) Tumor weights in the different groups of mice after 15 d of treatment.

[1] = Pharmacokinetic study, single intravenous dose
Method: Blood samples were collected at 0.083 h, 0.25 h, 0.5 h, 1 h, 2 h, 4 h, 8 h, and 12 h after administration. Plasma was prepared after centrifugation at 6000× g for 5 min and then stored at −20 °C for further analysis.

[2] = BALB/c, mouse, in vivo, iv, 10.65 mg/kg
[3] = PCC0208037 in plasma, 10.65 mg/kg PCC0208037 i.v., n = 3

CCc1c2c(nc3ccc(O)cc13)-c1cc3c(c(=O)n1C2)COC(=O)[C@@]3(CC)OC(=O)Nc1nc(=O)n([C@@H]2O[C@H](C)[C@@H](O)[C@H]2O)cc1F [PCC0208037]
IC50 (LS180 cells): 220 ± 60 nM | IC50 (HCT116 cells): 2900 ± 610 nM | cell growth ability (cell growth curve) (LS180 and HCT116 cells): decreased the cell growth ability in a dose-dependent manner | tumor inhibition rate (tumor weight) (LS180 xenograft tumor; 5 mg/kg i.v. once every 3 days): 29.9% | tumor inhibition rate (tumor weight) (LS180 xenograft tumor; 10 mg/kg i.v. once every 3 days): 37.2% | tumor inhibition rate (tumor weight) (LS180 xenograft tumor; 20 mg/kg i.v. once every 3 days): 50.8% | effect on body weight of tumor-bearing mice (LS180 xenograft tumor; PCC0208037 5, 10, 20 mg/kg, CPT-11 10 mg/kg, i.v. once every 3 days): without impacting the normal feeding and body weight gain | Cmax [1, 2]: 137 µg/mL | Tmax [1, 2]: 11.4 ± 4.2 min | half-life [1, 2]: 70.2 ± 0.9 min | AUCinf [1, 3]: 68,388.4 ± 17,991.1 H * ng/mL | AUClast [1, 3]: 68,292.5 ± 18,078.2 H * ng/mL
